IC50 data for 30 compounds are collected here from patent US20250066377A1, “AMINO CHROMEN-2-ONE MODULATORS OF POLRMT” (Pretzel Therapeutics, Inc., priority 2021, published 2025).

pIC50: −log10 of the molar value. Bounds are passed on as bounds.

This experiment deals with POLRMT (Homo sapiens (Human), UniProt O00411). In words: POLRMT homogeneous TR-FRET mitochondrial transcription assay. The class given is biochemical. To be noted: inhibition of POLRMT; TR-FRET detection of 407 bp RNA transcript; 7.5 nM POLRMT, 15 nM TFB2M, 30 nM TFAM, 60 minutes at 37° C. On the procedure: The inhibitory activity of the compounds of the present invention against POLRMT were determined by assays based on Bergbrede, T., et al., “An adaptable high-throughput technology enabling the identification of specific transcription modulators,” SLAC Discov., 22, 378-386 (2017).
Chain of POLRMT (O00411 42-1230): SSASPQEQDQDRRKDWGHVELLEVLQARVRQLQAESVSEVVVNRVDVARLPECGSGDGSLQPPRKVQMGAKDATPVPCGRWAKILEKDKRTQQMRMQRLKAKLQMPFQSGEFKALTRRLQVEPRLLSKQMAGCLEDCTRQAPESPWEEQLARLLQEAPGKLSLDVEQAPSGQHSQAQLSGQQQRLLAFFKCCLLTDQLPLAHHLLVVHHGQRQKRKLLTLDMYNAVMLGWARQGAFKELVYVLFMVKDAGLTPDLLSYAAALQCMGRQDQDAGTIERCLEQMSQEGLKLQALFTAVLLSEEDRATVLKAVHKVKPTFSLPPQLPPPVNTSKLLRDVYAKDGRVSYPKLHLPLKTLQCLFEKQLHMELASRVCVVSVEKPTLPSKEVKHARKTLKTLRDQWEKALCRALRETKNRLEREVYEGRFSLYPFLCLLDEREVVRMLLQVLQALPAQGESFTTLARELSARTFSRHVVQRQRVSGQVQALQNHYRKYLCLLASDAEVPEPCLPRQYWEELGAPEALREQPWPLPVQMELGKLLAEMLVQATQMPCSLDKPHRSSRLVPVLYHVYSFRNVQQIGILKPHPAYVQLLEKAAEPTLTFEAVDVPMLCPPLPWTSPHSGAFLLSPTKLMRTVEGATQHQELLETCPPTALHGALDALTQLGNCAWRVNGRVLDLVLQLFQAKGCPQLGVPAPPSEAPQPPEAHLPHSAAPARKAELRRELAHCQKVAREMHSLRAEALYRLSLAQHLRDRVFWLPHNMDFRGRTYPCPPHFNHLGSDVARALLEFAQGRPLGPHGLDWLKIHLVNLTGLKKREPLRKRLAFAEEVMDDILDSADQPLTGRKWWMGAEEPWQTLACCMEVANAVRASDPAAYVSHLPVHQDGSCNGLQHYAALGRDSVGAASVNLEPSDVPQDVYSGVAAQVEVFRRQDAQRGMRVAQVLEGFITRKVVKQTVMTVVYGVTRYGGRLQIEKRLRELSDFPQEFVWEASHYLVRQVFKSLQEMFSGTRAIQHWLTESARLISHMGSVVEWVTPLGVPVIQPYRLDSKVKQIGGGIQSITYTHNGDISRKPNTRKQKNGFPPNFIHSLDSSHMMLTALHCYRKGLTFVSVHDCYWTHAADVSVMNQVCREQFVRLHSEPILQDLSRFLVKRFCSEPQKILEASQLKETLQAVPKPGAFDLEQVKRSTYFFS
The ability of some compounds of the present invention to inhibit POLRMT were determined in a homogeneous TR-FRET Assay using high-throughput screening in a 384-well plate format. This method is used to monitor the activity of mitochondrial transcription through measurement of its product, a 407 bp long RNA transcript. Detection of the product is facilitated by hybridization of two DNA-oligonucleotide probes to specific and adjacent sequences within the RNA product sequence. Upon annealing of the probes, two fluorophores are coupled directly to an acceptor nucleotide probe (ATTO647, 5′), or introduced via a coupled streptavidin with a biotinylated donor nucleotide probe (Europium cryptate) that is brought into sufficient proximity to serve as a fluorescence-donor-acceptor pair. Thus, a FRET signal at 665 nm is generated upon excitation at 340 nm.
Proteins used as transcription factors (POLRMT: NP_005026.3, TFAM: NP_003192.1, TFB2M: NP_071761.1) are diluted from their stocks to working concentrations of 1 μM, 20 μM and 4 μM respectively, in a dilution buffer containing 20 mM Tris-HCl (pH 8.0), 200 mM NaCl, 10% (v/v) glycerol, 1 mM Dithiothreitol (DTT), 0.5 mM EDTA.
DNA template is a pUC18 plasmid with the mitochondrial light strand promotor sequence (1-477) cloned between HindIII and BamHI sites. The DNA template is restriction linearized proximal to the promotor 3′-end (pUC-LSP).
The reaction mixture (10 uL) containing 7.5 nM POLRMT, 15 nM of TFB2M, 30 nM of TFAM, 0.5 nM of DNA template and 500 μM nucleotide triphosphate mix (NTPs) in a reaction buffer (containing 10 mM Tris-HCl (pH 7.5), 10 mM MgCl2, 40 mM NaCl, 10 mM DTT, 0.005% (w/v) Tween-20, 160 units/ml Rnase inhibitor and 0.1 mg/mL BSA) are dispensed to compounds in microplates, using a Thermo Multidrop® dispenser, and incubated at 37° C. in a VWR INCU-Line incubator for 60 minutes after mixing. No nucleotide triphosphate mix is added to negative control samples. Microplates with compounds to be tested in the assay are prepared from 10 mM compound stocks in 100% DMSO, equal amounts of DMSO without any compound are added to positive control and negative control samples.
During the incubation, a mix of the detection reagents is prepared in a buffer such that the enzymatic reaction is terminated due to chelating of Mg-ions and increased ionic strength, containing 50 mM Tris-HCl (pH 7.5), 700 mM NaCl, 20 mM EDTA, and 0.01% (w/v) Tween-20. Europium-streptavidin is pre-incubated with a 200-fold molar excess of a random sequence oligonucleotide to block unspecific binding of oligo, for two hours at ambient temperature in the dark. Afterwards, the blocked Europium-streptavidin is kept on ice until use.
At the end of the enzymatic reaction time, 5 μL detection oligo mix in the detection buffer is added, and assay plates are mixed and kept at ambient temperature for one hour, protected from light. The concentration of the Acceptor nucleotide oligo (e.g., ATTO647N-5′-[…]-3′) and Donor nucleotide oligo (e.g., bio-5′-AACACATCTCT(-bio)GCCAAACCCCA-bio-3′) in each assay well is 1 nM, and 3 nM, respectively.
After incubation with oligo mix, 5 μL of pre-blocked Europium-streptavidin reagent is dispensed to each assay well, assay plates are again mixed and kept at ambient temperature for one hour, protected from light.
The generated signal is measured with BMG Pherastar microtiter plate reader with a TRF light unit, using excitation at 340 nm, an integration time of 200 μs, and a delay time of 100 μs, before detection at 620 nm and 665 nm. The ratio of donor- and acceptor-fluorescence is used as a measure of the generated transcript product (i.e. enzymatic activity).
(In general: TR-FRET usually uses a lanthanide donor and a delayed reading to cut background.)
The term pIC50 denotes the negative decadic logarithm of the IC50, by convention in mol/L. `Cc1ccccc1-c1cc(=O)oc2nc(N3CCC3)ccc12` [Example 19, 7-(azetidin-1-yl)-4-(o-tolyl)-2H-pyrano[2,3-b]pyridin-2-one] gave a pIC50 of 6.52. `CN(CCC(=O)O)c1ccc2c(-c3ccc(F)cc3Cl)cc(=O)oc2n1` [Example 55, 3-((4-(2-chloro-4-fluorophenyl)-2-oxo-2H-pyrano[2,3-b]pyridin-7-yl)(methyl)amino)propanoic acid] had a pIC50 of 4.92. For `CNC(=O)CN(C)c1ccc2c(-c3ccccc3C)cc(=O)oc2n1` [Example 39, N-methyl-2-[methyl-[4-(o-tolyl)-2-oxo-pyrano[2,3-b]pyridin-7-yl]amino]acetamide] the value was 6.00. `COC(=O)[C@@H](C)N(C)c1ccc2c(-c3ccc(F)cc3Cl)cc(=O)oc2n1` [Example 54, methyl N-(4-(2-chloro-4-fluorophenyl)-2-oxo-2H-pyrano[2,3-b]pyridin-7-yl)-N-methyl-D-alaninate] showed a pIC50 of 6.70. For `CNC(=O)CCN(C)c1ccc2c(-c3ccccc3C)cc(=O)oc2n1` [Example 43] the value was 5.15; for `CNC(=O)CN(C)c1ccc2c(-c3ccc(F)cc3Cl)cc(=O)oc2n1` [Example 45, 2-((4-(2-chloro-4-fluorophenyl)-2-oxo-2H-pyrano[2,3-b]pyridin-7-yl)(methyl)amino)-N-methylacetamide], 6.00. Regarding `COC1CCN(c2ccc3c(-c4ccc(F)cc4Cl)cc(=O)oc3n2)C1` (single isomer, unassigned) [Example 26, 4-(2-chloro-4-fluorophenyl)-7-(3-methoxypyrrolidin-1-yl)-2H-pyrano[2,3-b]pyridin-2-one], the pIC50 is 4.68. For the compound `Cc1ccccc1-c1cc(=O)oc2nc(N3CCC(C)(O)C3)ccc12` (racemic) [Example 13, 7-(3-hydroxy-3-methylpyrrolidin-1-yl)-4-(o-tolyl)-2H-pyrano[2,3-b]pyridin-2-one], the pIC50 was 6.52. Compound `Cc1ccccc1-c1cc(=O)oc2nc(N3CCC(C(=O)O)C3)ccc12` (single isomer, unassigned) [Example 33, 1-(2-oxo-4-(o-tolyl)-2H-pyrano[2,3-b]pyridin-7-yl)pyrrolidine-3-carboxylic acid] gave a pIC50 of 5.15. As to `COC1CCN(c2ccc3c(-c4ccccc4C)cc(=O)oc3n2)C1` (single isomer, unassigned) [Example 24, 7-(3-methoxypyrrolidin-1-yl)-4-(o-tolyl)-2H-pyrano[2,3-b]pyridin-2-one], the pIC50 was 5.52. Compared with the last compound, the pIC50 is 0.37 log units higher. Compound `Cc1ccccc1-c1cc(=O)oc2nc(N(C)CC(=O)O)ccc12` [Example 36, N-methyl-N-(2-oxo-4-(o-tolyl)-2H-pyrano[2,3-b]pyridin-7-yl)glycine] had a pIC50 of 6.00.

For the compound `Cc1ccccc1-c1cc(=O)oc2nc(N3CCCC3)ccc12` [Example 03, 7-(pyrrolidin-1-yl)-4-(o-tolyl)-2H-pyrano[2,3-b]pyridin-2-one], the pIC50 was 6.70. As for `COCC1CCN(c2ccc3c(-c4ccccc4C)cc(=O)oc3n2)C1` (single isomer, unassigned) [Example 31, 7-(3-(methoxymethyl)pyrrolidin-1-yl)-4-(o-tolyl)-2H-pyrano[2,3-b]pyridin-2-one], the pIC50 is 6.40.

As for `COC1CCN(c2ccc3c(-c4ccccc4C)cc(=O)oc3n2)C1` (racemic) [Example 07, 7-(3-methoxypyrrolidin-1-yl)-4-(o-tolyl)-2H-pyrano[2,3-b]pyridin-2-one], the pIC50 is 6.40.

For `Cc1ccccc1-c1cc(=O)oc2nc(N3CCC(F)C3)ccc12` (stereo not drawn) [Example 18, 7-(3-fluoropyrrolidin-1-yl)-4-(o-tolyl)-2H-pyrano[2,3-b]pyridin-2-one], the pIC50 is 6.00. Take `Cc1ccccc1-c1cc(=O)oc2nc(N3CCC(F)(F)C3)ccc12` [Example 17, 7-(3,3-difluoropyrrolidin-1-yl)-4-(o-tolyl)-2H-pyrano[2,3-b]pyridin-2-one]: the pIC50 was 6.22. This pIC50 lies 0.22 log units higher than the previous one. As to `Cc1ccccc1-c1cc(=O)oc2nc(N(C)CCC(=O)O)ccc12` [Example 41, 3-[methyl-[4-(o-tolyl)-2-oxo-pyrano[2,3-b]pyridin-7-yl]amino]propanoic acid], the pIC50 was 5.15. For `COCC1CCN(c2ccc3c(-c4ccccc4C)cc(=O)oc3n2)C1` (racemic) [Example 12, 7-(3-(methoxymethyl)pyrrolidin-1-yl)-4-(o-tolyl)-2H-pyrano[2,3-b]pyridin-2-one] the value was 6.05; for `CCN(C)c1ccc2c(-c3ccccc3C)cc(=O)oc2n1` [Example 05, 7-(ethyl(methyl)amino)-4-(o-tolyl)-2H-pyrano[2,3-b]pyridin-2-one], 6.40; for `Cc1ccccc1-c1cc(=O)oc2nc(N3CCC(C)(O)C3)ccc12` (single isomer, unassigned) [Example 28, 7-(3-hydroxy-3-methylpyrrolidin-1-yl)-4-(o-tolyl)-2H-pyrano[2,3-b]pyridin-2-one], 6.00. Take `O=c1cc(-c2ccc(F)cc2Cl)c2ccc(N3CCOCC3)nc2o1` [Example 21, 4-(2-chloro-4-fluorophenyl)-7-morpholino-2H-pyrano[2,3-b]pyridin-2-one]: the negative-log IC50 (pIC50) is 5.52.

With `CN(CC(=O)O)c1ccc2c(-c3ccc(F)cc3Cl)cc(=O)oc2n1` [Example 44, N-(4-(2-chloro-4-fluorophenyl)-2-oxo-2H-pyrano[2,3-b]pyridin-7-yl)-N-methylglycine], the pIC50 was 5.30. In turn, `COC(=O)CN(C)c1ccc2c(-c3ccccc3C)cc(=O)oc2n1` [Example 35, methyl N-methyl-N-(2-oxo-4-(o-tolyl)-2H-pyrano[2,3-b]pyridin-7-yl)glycinate] gave a negative logarithm of the IC50 (pIC50) of 6.70. Consider `Cc1cccc(C)c1-c1cc(=O)oc2nc(N3CCC[C@@H]3C(=O)O)ccc12` [Example 51, (4-(2,6-dimethylphenyl)-2-oxo-2H-pyrano[2,3-b]pyridin-7-yl)-D-proline], for which the pIC50 was 7.00. Regarding `Cc1ccccc1-c1cc(=O)oc2nc(N3CCN(C)CC3)ccc12` [Example 09, 7-(4-methylpiperazin-1-yl)-4-(o-tolyl)pyrano[2,3-b]pyridin-2-one], the pIC50 was less than 4.00.

In the case of `Cc1ccccc1-c1cc(=O)oc2nc(N3CCOCC3C)ccc12` (single isomer, unassigned) [Example 15, 7-(3-methylmorpholino)-4-(o-tolyl)-2H-pyrano[2,3-b]pyridin-2-one], the pIC50 was 5.70. On to `CNC(=O)CCN(C)c1ccc2c(-c3ccc(F)cc3Cl)cc(=O)oc2n1` [Example 47, 3-((4-(2-chloro-4-fluorophenyl)-2-oxo-2H-pyrano[2,3-b]pyridin-7-yl)(methyl)amino)-N-methylpropanamide], for which the pIC50 was 4.24. Consider `Cc1ccccc1-c1cc(=O)oc2nc(N(C)C)ccc12` [Example 01, 7-(dimethylamino)-4-(o-tolyl)-2H-pyrano[2,3-b]pyridin-2-one], for which the pIC50 is 6.00. As to `Cc1cccc(C)c1-c1cc(=O)oc2nc(N3CCC[C@H]3C(=O)O)ccc12` [Example 50, (4-(2,6-dimethylphenyl)-2-oxo-2H-pyrano[2,3-b]pyridin-7-yl)-L-proline], the pIC50 was 6.40.

Compound `Cc1ccccc1-c1cc(=O)oc2nc(N3CCN(C)C(=O)C3)ccc12` [Example 11, 7-(4-methyl-3-oxopiperazin-1-yl)-4-(o-tolyl)-2H-pyrano[2,3-b]pyridin-2-one] gave a pIC50 of 4.33.
